Results from patent US4965270A, “Purine derivatives” (Beecham Group p.l.c., priority 1989, dated 1990).
Converted amounts (≈) assume the structure as drawn.

Assays:
Assay type in all cases: cell-based
[1] = test system: visna virus (strain K184); assay: CPE inhibition test (established monolayer), visna virus; conditions: Visna-maedi virus; K184 strain in SCP cells; minimum concentration giving complete protection of the cell monolayers
Experimental: 4. CPE Inhibition Test (Established Monolayer) for Lentiviruses
3×10^4 sheep choroid plexus (SCP) cells were plated into individual wells of a 96 well microtitre plate in 100 μl of Eagle's MEM with Hanks salts containing 10% heat inactivated foetal calf serum (FCS). When monolayers had become established (after 1 or 2 days growth) they were washed with 200 μl of maintenance medium (Eagle's MEM with Hanks salts containing 0.5% FCS) and infected with 100μl of visna virus (strain K184) in maintenance medium (30 TCID50/ ml). Test samples were diluted with maintenance medium in further 96 well microtitre plates over the range 200-0.09 μg/ml by 3-fold dilution steps. 100 μl of the diluted samples was then transferred directly onto virus-infected monolayers (final concentration range therefore 100-0.045 μg/ml) and incubated at 37° C. in a humidified, 5% CO2 incubation until virus-induced CPE was maximal in the untreated virus-infected controls (usually 12-14 days). The plates were fixed with formal saline and stained with crystal violet.
Virus-induced CPE was then scored microscopically and the minimum concentration of sample giving complete protection of the cell monolayers (MIC) determined.

[2] = test system: herpes simplex virus 2 (HSV-2; strain MS); assay: Plaque reduction test, herpes simplex virus 2 (strain MS); conditions: Human alphaherpesvirus 2, MRC5, MS strain in MRC-5 cells; each figure is a single test; read-out: IC50, Herpes Simplex Type 2 virus
Experimental: Plaque Reduction Test for Heroes Simplex viruses 1 and 2. Cells (vero or MRC-5) were grown to confluence in 24 well multi-dishes (well diameter 1.5 cm). The drained cell monolayers were each infected with approximately 50 infectious particles of herpes simplex virus 1 (HSV-1; strain HFEM) or herpes simplex virus 2 (HSV-2; strain MS) in 100 μof phosphate-bufferedsaline. The virus was adsorbed for 1 hour at room temperature. After adsorption, residual inoculum was removed from each well and replaced with 0.5ml of Eagle's MEM containing 5% newborn calf serum and 0.9% agarose (A37). Once the agarose had set, dilutions of the test compound, which had been prepared in Eagle's MEM (containing 5% newborn calf serum), were added, each well receiving 0.5ml of liquid overlay. The test compound was diluted to give the following series of […] concentrations: 200, 60, 20, 6 . . . 0.06 μg/ml; final concentrations in the assay ranged, therefore, between 100 μg/ml and 0.03 μg/ml. […]
Cultures from 1 and 2 were fixed in formal saline, the agarose overlays were carefully washed off, and then the cell monolayers were stained with carbol fuchsin. […] In addition, the monolayers were examined for evidence of drug-induced cytotoxicity; the minimum concentration at which cytotoxicity occurs was recorded.

[3] = test system: herpes simplex virus 1, strain SC16; assay: CPE inhibition test (replicating cells), herpes simplex virus 1 (strain SC16); conditions: Human alphaherpesvirus 1, SC16, MRC5, SC16 strain in MRC-5 cells; each figure is a single test; read-out: IC50, Herpes Simplex Type 1 virus
Description: 3. CPE Inhibition Test (Replicating Cells) for Herpes Simplex Virus 1 MRC-5 cells (in Eagles MEM containing 5% newborn calf serum) were infected in suspension with herpes simplex virus 1, strain SC16 (approximately one infectious particle per 10 cells). One hundred microliters of the infected cell suspension (containing approximately 2× 10^4 cells) were dispensed into each well of a 96 well microtitre plate containing an equal volume of the test drug in medium (Eagles MEM containing 5% newborn calf serum) at concentrations ranging from 200 to 0.09 μg/ml (3-fold dilution steps); final concentrations therefore ranged between 100 to 0.045 μg/ml. The plates were then incubated at 37° C. in a humidified atmosphere of 5% CO2 for 3 days when the virus-induced cytopathic effect (CPE) in the control wells reached 100%. The plates were fixed in formal saline and stained with carbol fuchsin. […] Plates of uninfected cells were set up in parallel to determine the minimum concentration of test compound which caused cytotoxicity.

Row | SMILES | MIC [1] [µg/mL] | IC50 [2] [µg/mL] | IC50 [3] [µg/mL]
1 | Nc1nc2c(ncn2OCCCO)c(=O)[nH]1 [Example 1, 9-(3-Hydroxyprop-1-oxy)guanine] | 3 (≈ 13.3 µM) | – | –
2 | Nc1nc2c(ncn2OCC(CO)CO)c(=O)[nH]1 [Example 5, 9-(3-Hydroxy-2-hydroxymethylprop-1-oxy)guanine] | 0.1 (≈ 0.392 µM) | – | –
3 | Nc1nc2c(ncn2OCC(O)CO)c(=O)[nH]1 (stereo not shown) [Example 6, 9-(2,3-Dihydroxyprop-1-oxy)guanine] | 10 (≈ 41.5 µM) | – | –
4 | Nc1nc2c(ncn2OC(CO)CCO)c(=O)[nH]1 (stereo not shown) [Example 8, 9-(1,4-Dihydroxybut-2-oxy)guanine] | 30 (≈ 118 µM) | – | –
5 | Nc1nc2c(ncn2OC[C@@H](O)CO)c(=O)[nH]1 [Example 31, (S)-9-(2,3-Dihydroxyprop-1-oxy)guanine] | 10 (≈ 41.5 µM) | 0.06 (≈ 0.249 µM) | 0.7 (≈ 2.9 µM)
